For one series, the system named is human osteoclasts. Description: Human osteoclast-mediated bone resorption assay. The series is classed as cell-based. To be noted: 24 hours, bovine cortical bone particles. How it is done: The isolation of disaggregated human osteoclasts from fresh osteoclastoma tissue and the in vitro human osteoclast resorption assay were performed according to James, J. Bone Min. Res., Vol. 11, pp. 1453-1460. Briefly, human osteoclasts were seeded onto bovine cortical bone particles with compound or vehicle for 24 hours at 37° C. The culture media were then removed and the levels of the carboxy-terminal peptide of the α1 chain of human type I collagen were quantified as a biochemical readout of resorption, using a competitive binding enzyme linked immunosorbant assay (ELISA) (19) (Osteometer A/S, Rodovre, Denmark). The results are expressed as percent inhibition of resorption compared to supernatants derived from osteoclasts cultured in vehicle without inhibitor. IC50 values are determined from the resultant dose response curves.

Series [1] concerns osteopenic ovx rats. Put plainly: Ovariectomized rat Study 2: calcilytic plus/minus 17β estradiol, histology and histomorphometry of proximal tibia. Type of series: in vivo. To be noted: Study 2, proximal tibia, static histomorphometry, vs ovx group. On the procedure: Animals were prepared and monitored as described above. […] Dosing continued for 5 weeks at which point the animals were sacrificed and the tibiae were collected for histological analysis. Bone samples were dehydrated through increasing concentrations of ethanol, defatted in acetone and embedded in methyl methacrylate (Polysciences, Inc., Warrington, Pa.). Longitudinal undecalcified sections (5 μm) sections of the proximal tibial were cut on a Leica microtome (S[…]); the tissue blocks had been prestained with Villanueva stain. Histomorphometric analysis was carried out using an Osteomeasure system (OsteoMetrics Incorpotated), without knowledge of group allocation. Measurements within the tibial metaphysis were restricted to a mean tissue area of approximately 8 mm^2 beginning 1 mm below the growth plate. Primary measurements included area of bone and marrow (mm^2), bone area (mm^2), perimeter of bone (mm), single and double-labelled perimeter (sL.Pm, dL.Pm, m), osteoid perimeter (O.Pm, m) and eroded perimeter (Er.P, m). […] Statistical analysis was assessed by a two sided t-test.

Series [2] relates to osteopenic ovx rats. Description: Ovariectomized rat Study 1: bone mineral density by DXA. The series is classed as in vivo. To be noted: Study 1, ovx rats, 5 ug/kg daily PTH s.c., eight weeks. The source says:
(§1) Seven month old virgin Sprague Dawley female rats were subjected to bilateral ovariectomy or sham surgery and the animals then held for a period of three months to allow the development of osteopenia. At that time a single sham group (n=10) and three groups of ovariectomized (ovx) animals (n=10-14) were assigned. The ovx groups were selected such that there was no significant difference in bone mineral density (“BMD”) of the lumbar spine, proximal tibia or distal femur between groups. Groups consisted of sham and ovx controls treated with dose vehicle (20% aqueous encapsin) and ovx groups treated with either N-[(2R-Hydroxy-3-[(3-chloro-2-cyano)phenoxy-propyl]-1,1-dimethyl-2-(2-naphthyl)ethyl amine hydrochloride (“calcilytic administered”) ([…] body weight daily p.o.) or rat PTH 1-34 (5 ug/kg body weight daily s.c.).
(§2) During the study blood samples were drawn for determination of circulating PTH and osteocalcin. BMD was determined by DXA (QDR4500 Hologic, Waltham, Mass.) prior to treatment and at weeks 4 and 8. At term tibiae were removed for histological analysis. All animals received tetracycline 10 and 3 days prior to the start of dosing and calcein (10 mg/kg) 10 and 3 days prior to sacrifice.

The next series relates to plasma PTH. Description: Ovariectomized rat Study 1: circulating PTH levels (RIA). Type of series: in vivo. To be noted: Study 1, 5 ug/kg PTH s.c.
Text: as §1, §2
Timed plasma samples were collected relative to administration of compound or PTH. PTH 1-34 was measured by RIA (Nichols Institute Diagnostics, San Juan Capistrano, Calif.). The concentrations of compound in the plasma were quantified by LC/MS/MS (limit of detection 10 ng/ml).

The subject of series [3] is osteopenic ovx rats. Put plainly: Ovariectomized rat Study 1: dynamic histomorphometry of proximal tibia. The series is classed as in vivo.
Text: as §1, §2
Bone samples were dehydrated through increasing concentrations of ethanol, defatted in acetone and embedded in methyl methacrylate (Polysciences, Inc., Warrington, Pa.). Longitudinal undecalcified sections (5 μm) sections of the proximal tibial were cut on a Leica microtome (SM2500S); the tissue blocks had been prestained with Villanueva stain. Histomorphometric analysis was carried out using an Osteomeasure system (OsteoMetrics Incorpotated), without knowledge of group allocation. Measurements within the tibial metaphysis were restricted to a mean tissue area of approximately 8 mm^2 beginning 1 mm below the growth plate. Primary measurements included area of bone and marrow (mm^2), bone area (mm^2), perimeter of bone (mm), single and double-labelled perimeter (sL.Pm, dL.Pm, m), osteoid perimeter (O.Pm, m) and eroded perimeter (Er.P, m). Derived indices included trabecular bone volume (% Tb.Ar), trabecular number (Th.N, mm^−1), trabecular thickness (Th.Th, μm), trabecular separation (Th.Sp, μm), bone formation rate, surface referent (BFR/Tb.Pm, μm^3/μm^2/year), BFR/Tb.Ar (bone area referent, %/year), BFR/B.Ar (tissue referent, %/year) and mineral apposition rate (MAR, μm/day), and percent labelled perimeter (% Lp). Statistical analysis was assessed by a two sided t-test.

For series [4], the system named is human TF274 osteoblastic cells. Description: Osteoblast cAMP production, TF274 cells. Type of series: cell-based. To be noted: compound 0.1, 1 and 10 uM, PTH 40 ng/ml positive control. On the procedure:
(§3) cAMP accumulation was measured in both human TF274 osteoblastic cells (derived by immortalization of human bone marrow stromal cells) see James, supra, and primary human osteoblasts derived from explants of trabecular bone as described in Beresford, Biochim. Biophys. Acta, Vol. 801, pp. 58-65 ([…]). cAMP levels in cell samples were measured using a non-radioactive protocol (Amersham kit). Alkaline phosphatase activity was determined using the standard colorimetric method as described previously in Gowen, Arth. Rheum., Vol. 31, pp. 1500-1507 (1988). N-[(2R-Hydroxy-3-[(3-chloro-2-cyano)phenoxy-propyl]-1,1-dimethyl-2-(2-naphthyl)ethyl amine hydrochloride was tested at 0.1, 1 and 10 uM. PTH 40 ng/ml was used as a positive control.
Background: Cyclic AMP is a second messenger, typically raised through Gs and lowered through Gi signalling.

Series [5] relates to primary human osteoblasts. Put plainly: Osteoblast cAMP production, primary human osteoblasts. The series is classed as cell-based. To be noted: compound 0.1, 1 and 10 uM, PTH 40 ng/ml positive control. On the procedure:
as §3

For series [6] the following is noted: rats, PTH dose of 80 ug/kg, published studies; cited from earlier work.
For series [7] the following is noted: cited from earlier work.
For series [8] the following is noted: s.c. infusion 40 and 80 ug/kg/day over periods of 2 hours or more; cited from earlier work.
The mark [9] stands for this setting: Study 1, proximal tibia, vs ovx control, calcilytic 100 mmol/kg p.o. or PTH 5 ug/kg s.c. daily.
Setting [10] is: clinical, 0.4 ug/kg, 30 minutes after dosing.

pIC50: −log10 of the molar value.

In the series on human osteoclasts, “3,1,1-bis (2-methylpropyl)-4,7,10-trioxo-2,5,6,8,9,12-hexaazatridecanedioate [reference compound]” had a pIC50 of 6.05.
Regarding `C[C@]12CC[C@@H]3c4ccc(O)cc4CC[C@H]3[C@@H]1CC[C@@H]2O` [estradiol, 17β estradiol, reference compound], the “% trabecular area (% Tb.Ar.) / ovx-induced bone loss” value in the series on osteopenic ovx rats [1] is “not significantly restored”.
Take “PTH: parathyroid hormone; rat PTH 1-34 s.c. in the rat studies, PTH 40 ng/ml as positive control in osteoblast assays [reference compound]”: the “bone mass (BMD) in the proximal tibia” value in the series with osteopenic ovx rats [2] is listed as “returned to pre-ovx levels”. Also, the “time of return of PTH levels to baseline after dosing” value with plasma PTH lay in the range of 2 to 4 h. The “PTH levels in animals given PTH” value in the series on plasma PTH (compared with calcilytic-dosed animals) is listed as “in the same range”. Further, in the series with osteopenic ovx rats [3] (Study 1, overall outcome), the “bone formation and resorption, net bone gain or loss” value was “increased both resorption and formation, but formation exceeded resorption, resulting in increased bone mass”. Also, in the series with osteopenic ovx rats [3] (setting [9]), the “bone formation: % labeled perimeter (% L.Pm.)” value is listed as “elevated above the ovx control level” and the “bone formation: % osteoid perimeter (% Os.Pm)” value is given as “elevated above the ovx control level”. Further, the “cAMP levels (basal)” value in series [4] was “two-fold increase”. For the same molecule, the “cAMP levels (basal)” value in [5] is “two-fold increase”. In [6], the “circulating level of PTH” value is 5,000-14,000 pg/ml. Besides, in series [7] (clinical studies, approximate doses of 0.4-0.8 ug/kg body weight), the bone mass entry is on record as “increased bone mass”. In series [7] (setting [10]), the “circulating levels of PTH 1-34” value is reported as “approximately 90 pmol/l” and the “increase in circulating PTH levels” value is given as “three-fold increase”. In [8], the “adverse effects of prolonged PTH infusion” value is “rapid loss in body weight, hypercalcemia and histological abnormalities in the skeleton”.

The pIC50 is the negative decadic logarithm of the IC50, by convention in mol/L. Read a high pIC50 as a small IC50.

Source of the values: US20060035927A1, “Calcilytic compounds” (SmithKline Beecham Corporation, priority 1999, published 2006).
